# In patent publication US20070249501A1 (priority 2004, published 2007):
# Assays:
# [1] = tested on: root-knot nematode Meloidogyne javanica; settings: in vivo
# [2] = tested on: microbial populations in soil; assay type: cell-based
# [3] = tested on: tomato (cv. 870) seedlings; settings: in vivo
# [4] = tested on: Fusarium oxysporum f. sp. radicis-lycopersici (FORL); assay type: cell-based
# Sclerotium rolfsii = assay type: cell-based
compound,measurement,setting,value
"ClC=CCCl [1,3-dichloropropene]",galling index of tomato plant roots,[1],zero
"ClCCBr [BCE, ethylene bromochloride]",reduction of microbial populations in soil,[2],none of the tested industrial biocides was capable of significantly reducing microbial populations in soil
same,root system development in treated soil,[3],substantially stunted root system
"BrC(Br)Br [BF, bromoform]",reduction of microbial populations in soil,[2],none of the tested industrial biocides was capable of significantly reducing microbial populations in soil
"OCC(CO)(CBr)CBr [DBNPG, dibromoneopentyl glycol]",reduction of microbial populations in soil,[2],none of the tested industrial biocides was capable of significantly reducing microbial populations in soil
"CN1CSC(=S)N(C)C1 [Dazomet, dazomet]","effect on population densities of FORL, Verticillium dahliae, Macrophomina phaseolina and Streptomyces spp. in soil (FIG. 3)",[2],the effect of bromopicrin was similar to the effect of the commercial fumigant Basamid
"COc1ccc(C=CC(=O)O)cc1 [MCA, methoxy cinnamic acid]",reduction of microbial populations in soil,[2],none of the tested industrial biocides was capable of significantly reducing microbial populations in soil
"O=S([O-])S(=O)(=O)[O-].[K+].[K+] [PMS, potassium metabisulfite]",reduction of microbial populations in soil,[2],none of the tested industrial biocides was capable of significantly reducing microbial populations in soil
same,root system development in treated soil,[3],substantially stunted root system
"OCC(CBr)(CBr)CBr [TBNPA, tribromoneopentyl alcohol]",reduction of microbial populations in soil,[2],none of the tested industrial biocides was capable of significantly reducing microbial populations in soil
"O=[N+]([O-])CBr [monobromonitromethane, bromonitromethane]","control of FORL in soil (percent survival, FIG. 6)",[4],effective in controlling soil-borne fungi
same,"control of S. rolfosii in soil (percent survival, FIG. 6)",Sclerotium rolfsii,effective in controlling soil-borne fungi
C[N+](=O)[O-] [nitromethane],"control of FORL in soil (percent survival, FIG. 6)",[4],no effect in controlling pests
same,"control of S. rolfosii in soil (percent survival, FIG. 6)",Sclerotium rolfsii,no effect in controlling pests
tetrabromoethane [TBE],reduction of microbial populations in soil,[2],none of the tested industrial biocides was capable of significantly reducing microbial populations in soil
tetramethylammonium bromide [TMBr],reduction of microbial populations in soil,[2],none of the tested industrial biocides was capable of significantly reducing microbial populations in soil
